Laboratory results as given in US10626077B2, “Salvianolic acid compound T, preparation method therefor, and use thereof” (TASLY PHARMACEUTICAL GROUP CO., LTD., priority 2013, dated 2020).

Experiments:
[1] = test system: rats with myocardial infarction induced by coronary artery ligation; experiment: Blood biochemical index of rats with myocardial infarction induced by coronary artery ligation; assay type: in vivo, SD rats; conditions: for CK / CK-MB / LD / MDA / SOD: serum
[2] = test system: rats with myocardial infarction induced by coronary artery ligation; experiment: J point of ECG in rats with myocardial infarction induced by coronary artery ligation; assay type: in vivo, SD rats
Description: […] Aspirin: 30 mg/kg body-weight. Clean male SD rats were taken and placed in groups randomly according to the body-weight, including pseudo operation group (distilled water), model group (distilled water), aspirin group, (S)-salvianolic acid T low-dose group, (S)-salvianolic acid T high-dose group, and there were 10 rats in each group. Each group of rats were administrated by gastric administration once a day, continuously for 10 days. […] Recording standard II lead ECG at 5 minutes before surgery, 0 s, 1 min, 5 min, 15 min, 1 h, 4 h after the ligation, to investigate the changes of J point of ECG.

[3] = Determination of reducing capacity (potassium ferricyanide / ferric chloride, absorbance at 700 nm)
Description: 0.5 ml of 200 mM phosphate buffer (pH6.8) containing different concentrations of the (S)/(R)-salvianolic acid T and 0.5 ml of 1.0% (w/v) potassium ferricyanide solution were sucked respectively and cooled on an ice bath after being heated on a water bath (50[…]) for 20 min. 0.5 ml of 10% trichloroacetic acid solution was added and centrifuged at […] for 10 min. 1.0 ml of the resulting supernatant was taken, into which 1.0 ml of distilled water and 0.2 ml of 0.1% (w/v) ferric chloride solution were added, stood still for 10 min and the absorbance was measured at 700 nm. Meanwhile, the blank experiment was carried out. Vitamin C is a strongly reducing substance, acting as positive control in this study. Reducing capacity of the sample is represented by subtracting the absorbance of the blank control from the absorbance of the tested sample. Thus, it means the higher absorbance, the stronger reducing capacity.

[4] = DPPH free-radical scavenging reaction
Description: Absorbance of the reaction solution was measured at 517 nm. In this study, vitamin C was regarded as a positive control. Free-radical scavenging rate was calculated in accordance with the following equation: Free-radical scavenging rate (%)=[1−Asample/Acontrol)/Acontrol]×100% Wherein, the Asample means the absorbance of the tested samples, and Acontrol means the absorbance of blank control.

[5] = test system: rats with myocardial infarction induced by coronary artery ligation; experiment: Myocardial infarction rate (TTC staining) after coronary artery ligation; assay type: in vivo, SD rats; conditions: for myocardial infarction rate: compared with the model group, P<0.05
Description: Clean male SD rats were taken and placed in groups randomly according to the body-weight, including pseudo operation group (distilled water), model group (distilled water), aspirin group, (S)-salvianolic acid T low-dose group, (S)-salvianolic acid T high-dose group, and there were 10 rats in each group. Each group of rats were administrated by gastric administration once a day, continuously for 10 days. […] Recording standard II lead ECG at 5 minutes before surgery, 0 s, 1 min, 5 min, 15 min, 1 h, 4 h after the ligation, to investigate the changes of J point of ECG. Taking out the heart immediately after the end of the experiment, washing away the blood with normal saline, cutting off the atrium and the bottom of the blood vessels, weighing the mass of the ventricle, cutting the ventricle into 5 pieces on average along the atrioventricular groove and putting them into 1% (w/v) TTC solution, dyeing in the water bath at a constant temperature of 37 °C for 5 min, taking digital photos firstly after taking them out, then separating the unstained parts (that is, the infarct parts) and weighing to calculate the percentage of them in the mass of total ventricular (myocardial infarction percentage), and performing t test with ischemia model group. The formula for calculating the infarct percentage is as follows: Infarct percentage (%)=(the mass of pale areas/the mass of the ventricle)×100%

[6] = test system: L929 cells induced by TGF-β1; experiment: Inhibition of L929 cell proliferation induced by TGF-β1 (MTT); assay type: cell-based; conditions: Mus musculus, L929, 72 h, 2 μg/L TGF-β1, 72 h, MTT method
Description: L929 cells with a cell population of 5×10^7/L adjusted by DMEM culture solution containing 10% fetal bovine serum were seeded into 96 well plate, cultured for 24 h. Supplementing the same culture medium containing 2 μg/L TGF-β1 and (S)/(R)-salvianolic acid T of different concentrations. There were 6 multiple pores in each group, final concentration of (S)/(R)-salvianolic acid T was set as 0, 1, 3, 10, 20, 40, 80, 150 μmol/L. Removing medium after being cultured for 72 h, assaying the cell activity by MTT method.

[7] = test system: mice pulmonary fibrosis induced by bleomycin; experiment: Anti-pulmonary fibrosis experiment in mice induced by bleomycin; assay type: in vivo, Kunming mice; conditions: 3 weeks
Description: Dividing the 40 mice into 4 groups: □ normal control group, given nasal dripping of normal saline, drenched with normal saline; □ model control group:given nasal dripping of bleomycin, drenched with normal saline; □(S)-salvianolic acid T group (16 mg/kg): given nasal dripping of bleomycin, drenched with (S)-salvianolic acid T solution; □(R)-salvianolic acid T group (16 mg/kg): given nasal dripping of bleomycin, drenched with (R)-salvianolic acid T solution; 10 mice in each group.
On the first day of the experiment, the mice were anesthetized with chloral hydrate, each mouse was given disposable nasal dripping of 50 μg bleomycin to establish the pulmonary fibrosis model. On the second day of the experiment, two treatment groups were drenched with (S)/(R)-salvianolic acid T, the model group and the normal group were drenched with equal volume of normal saline, once each day, 3 consecutive weeks. On the 21th day of the experiment, serum was separated from the blood collected from the orbital vein to detect TGF-β1, the mice were killed to take lungs, ground with double distilled water (the ratio of lungs and double distilled water was 1:5 (w/v)) into tissue homogenate, centrifuged to detect the MDA, superoxide dismutase (SOD), catalase (CAT), peroxidase (POD) in the tissues.

[8] = high-dose group, dosage 10 mg/kg
[9] = compared with positive control vitamin C
[10] = sample 0.625 μg/ml, 100 μM DPPH, 20 min, 25° C.
[11] = 16 mg/kg, lung tissue homogenate

## O=C(/C=C/c1ccc(O)c(O)c1/C(=C\c1ccc(O)c(O)c1)C(=O)O)O[C@@H](Cc1ccc(O)c(O)c1)C(=O)O [(S)-salvianolic acid T]
[1]; [8]
  Na^+—K^+-ATPase: 0.005 ± 0.006 μmolPi/10^7 RBC/h
  CK: 0.88 ± 0.22 U/ml
  CK-MB: 846.7 ± 144.2 U/L
  LD: 1.65 ± 0.24 mmol/L
  MDA: 6.72 ± 1.54 nmol/mL
  SOD: 241.7 ± 19.8 U/ml
[1]; low-dose group, dosage 5 mg/kg
  Na^+—K^+-ATPase: 0.004 ± 0.001 μmolPi/10^7 RBC/h
  CK: 1.18 ± 0.29 U/ml
  CK-MB: 970.9 ± 225.1 U/L
  LD: 1.67 ± 0.23 mmol/L
  MDA: 7.46 ± 1.07 nmol/mL
  SOD: 220.3 ± 32.6 U/ml
[2]; high-dose group, dosage 10 mg/kg, gastric once a day for 10 days, before operation
  J point: −0.014 ± 0.005 mv
[2]; high-dose group, dosage 10 mg/kg, 1 min after operation
  J point: 0.169 ± 0.033 mv
[2]; high-dose group, dosage 10 mg/kg, 5 min after operation
  J point: 0.146 ± 0.031 mv
[2]; high-dose group, dosage 10 mg/kg, 15 min after operation
  J point: 0.160 ± 0.027 mv
[2]; high-dose group, dosage 10 mg/kg, 1 h after operation
  J point: 0.170 ± 0.014 mv
[2]; high-dose group, dosage 10 mg/kg, 4 h after operation
  J point: 0.153 ± 0.028 mv
[2]; low-dose group, dosage 5 mg/kg, gastric once a day for 10 days, before operation
  J point: −0.011 ± 0.003 mv
[2]; low-dose group, dosage 5 mg/kg, 1 min after operation
  J point: 0.176 ± 0.050 mv
[2]; low-dose group, dosage 5 mg/kg, 5 min after operation
  J point: 0.204 ± 0.010 mv
[2]; low-dose group, dosage 5 mg/kg, 15 min after operation
  J point: 0.185 ± 0.096 mv
[2]; low-dose group, dosage 5 mg/kg, 1 h after operation
  J point: 0.206 ± 0.036 mv
[2]; low-dose group, dosage 5 mg/kg, 4 h after operation
  J point: 0.194 ± 0.042 mv
[3]; [9]
  reducing capacity compared with vitamin C: much stronger than that of vitamin C
[3]; sample 3.125 μg/ml
  reducing capacity (absorbance at 700 nm minus blank control): 0.157 ± 0.027
[3]; sample 6.25 μg/ml
  reducing capacity (absorbance at 700 nm minus blank control): 0.215 ± 0.011
[3]; sample 12.5 μg/ml
  reducing capacity (absorbance at 700 nm minus blank control): 0.039 ± 0.012
[3]; sample 25 μg/ml
  reducing capacity (absorbance at 700 nm minus blank control): 0.771 ± 0.023
[3]; sample 50 μg/ml
  reducing capacity (absorbance at 700 nm minus blank control): 1.573 ± 0.036
[4]; [9]
  free-radical scavenging compared with vitamin C: much higher free-radical scavenging than that of the vitamin C
[4]; [10]
  Free-radical scavenging rate: 10.32 ± 0.81%
[4]; sample 1.25 μg/ml
  Free-radical scavenging rate: 28.77 ± 2.26%
[4]; sample 2.5 μg/ml
  Free-radical scavenging rate: 44.22 ± 1.95%
[4]; sample 5 μg/ml
  Free-radical scavenging rate: 86.01 ± 8.92%
[4]; sample 10 μg/ml
  Free-radical scavenging rate: 98.97 ± 5.41%
[5]; high-dose group compared with aspirin group, FIG. 11 heart biopsy
  effect on preventing acute myocardial infarction induced by coronary artery ligation: equal effect
[5]; high-dose group
  myocardial infarction rate: significantly reduce the myocardial infarction rate
[6]
  IC50: 26.1 µM
[7]; 16 mg/kg drenched once each day, day 21
  Serum TGF-β1: 263 ± 35 ng/L
[7]; [11]
  CAT: 24.9 ± 2.3 U/g
  MDA: 324 ± 33 µg/g
  POD: 15.3 ± 2.1 U/g
  SOD: 57.3 ± 4.9 U/g
  Tissue TGF-β1: 541 ± 51 pg/g

## CC(=O)Oc1ccccc1C(=O)O [Aspirin, reference compound]
[1]; aspirin group, dosage 30 mg/kg
  Na^+—K^+-ATPase: 0.005 ± 0.001 μmolPi/10^7 RBC/h
  CK: 1.01 ± 0.16 U/ml
  CK-MB: 841.9 ± 20.3 U/L
  LD: 1.75 ± 0.17 mmol/L
  MDA: 6.84 ± 0.97 nmol/mL
  SOD: 221.1 ± 24.7 U/ml
[2]; aspirin group, dosage 30 mg/kg, gastric once a day for 10 days, before operation
  J point: −0.012 ± 0.005 mv
[2]; aspirin group, dosage 30 mg/kg, 1 min after operation
  J point: 0.172 ± 0.057 mv
[2]; aspirin group, dosage 30 mg/kg, 5 min after operation
  J point: 0.184 ± 0.024 mv
[2]; aspirin group, dosage 30 mg/kg, 15 min after operation
  J point: 0.166 ± 0.025 mv
[2]; aspirin group, dosage 30 mg/kg, 1 h after operation
  J point: 0.169 ± 0.036 mv
[2]; aspirin group, dosage 30 mg/kg, 4 h after operation
  J point: 0.172 ± 0.021 mv
[5]; aspirin group (30 mg/kg)
  myocardial infarction rate: significantly reduce the myocardial infarction rate

## O=C1O[C@H]([C@@H](O)CO)C(O)=C1O [Vitamin C, reference compound]
[4]; [10]
  Free-radical scavenging rate: 8.02 ± 0.47%
[4]; sample 1.25 μg/ml
  Free-radical scavenging rate: 15.56 ± 1.81%
[4]; sample 2.5 μg/ml
  Free-radical scavenging rate: 21.32 ± 1.89%
[4]; sample 5 μg/ml
  Free-radical scavenging rate: 56.29 ± 5.93%
[4]; sample 10 μg/ml
  Free-radical scavenging rate: 79.51 ± 7.26%
